Molecular target: human integrin αvβ6 (Homo sapiens (Human), UniProt P06756+P18564)
Assay: Proximity-based integrin receptor binding assay (ALPHASCREEN) for inhibitor potency
Settings: inhibition of binding of TGF-b1 LAP to human integrin αvβ6; values given in ranges
How it was run: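 AlphaScreen: integrin, compound, TGF-b1 LAP, biotinylated anti-LAP antibody and acceptor beads incubated 2 hours, then streptavidin donor beads 30 minutes, at room temperature in 50 mM Tris-HCl pH 7.5, 0.1% BSA, 1 mM CaCl2 and MgCl2. Excitation 680 nm, emission 520-620 nm; IC50 by four-parameter logistic fit.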

human integrin αvβ6, sequence (P06756 31-992): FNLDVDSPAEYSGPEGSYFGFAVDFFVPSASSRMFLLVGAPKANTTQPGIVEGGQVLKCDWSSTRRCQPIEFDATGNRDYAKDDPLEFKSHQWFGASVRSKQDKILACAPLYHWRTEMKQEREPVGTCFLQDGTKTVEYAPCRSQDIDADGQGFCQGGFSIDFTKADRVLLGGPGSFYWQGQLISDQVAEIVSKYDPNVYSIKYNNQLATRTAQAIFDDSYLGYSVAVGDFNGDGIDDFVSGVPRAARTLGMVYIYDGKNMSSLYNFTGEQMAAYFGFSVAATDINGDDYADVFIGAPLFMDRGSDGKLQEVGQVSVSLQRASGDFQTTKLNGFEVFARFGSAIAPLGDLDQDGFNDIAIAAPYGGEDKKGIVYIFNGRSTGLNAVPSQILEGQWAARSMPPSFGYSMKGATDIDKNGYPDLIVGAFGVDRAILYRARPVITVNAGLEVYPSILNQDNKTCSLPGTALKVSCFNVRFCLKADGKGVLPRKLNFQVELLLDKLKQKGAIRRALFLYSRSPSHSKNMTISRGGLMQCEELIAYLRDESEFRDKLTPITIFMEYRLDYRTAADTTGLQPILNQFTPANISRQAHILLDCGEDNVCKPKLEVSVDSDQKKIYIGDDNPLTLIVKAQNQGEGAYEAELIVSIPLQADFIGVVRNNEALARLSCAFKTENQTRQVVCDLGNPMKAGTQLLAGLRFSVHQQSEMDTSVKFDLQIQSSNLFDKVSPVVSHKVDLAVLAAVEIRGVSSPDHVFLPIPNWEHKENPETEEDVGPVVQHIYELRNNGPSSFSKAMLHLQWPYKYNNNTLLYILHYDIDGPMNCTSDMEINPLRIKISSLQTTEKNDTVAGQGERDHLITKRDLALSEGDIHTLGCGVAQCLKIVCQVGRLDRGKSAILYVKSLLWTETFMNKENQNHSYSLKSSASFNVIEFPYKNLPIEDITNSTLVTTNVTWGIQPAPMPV
human integrin αvβ6, sequence (P18564 22-707): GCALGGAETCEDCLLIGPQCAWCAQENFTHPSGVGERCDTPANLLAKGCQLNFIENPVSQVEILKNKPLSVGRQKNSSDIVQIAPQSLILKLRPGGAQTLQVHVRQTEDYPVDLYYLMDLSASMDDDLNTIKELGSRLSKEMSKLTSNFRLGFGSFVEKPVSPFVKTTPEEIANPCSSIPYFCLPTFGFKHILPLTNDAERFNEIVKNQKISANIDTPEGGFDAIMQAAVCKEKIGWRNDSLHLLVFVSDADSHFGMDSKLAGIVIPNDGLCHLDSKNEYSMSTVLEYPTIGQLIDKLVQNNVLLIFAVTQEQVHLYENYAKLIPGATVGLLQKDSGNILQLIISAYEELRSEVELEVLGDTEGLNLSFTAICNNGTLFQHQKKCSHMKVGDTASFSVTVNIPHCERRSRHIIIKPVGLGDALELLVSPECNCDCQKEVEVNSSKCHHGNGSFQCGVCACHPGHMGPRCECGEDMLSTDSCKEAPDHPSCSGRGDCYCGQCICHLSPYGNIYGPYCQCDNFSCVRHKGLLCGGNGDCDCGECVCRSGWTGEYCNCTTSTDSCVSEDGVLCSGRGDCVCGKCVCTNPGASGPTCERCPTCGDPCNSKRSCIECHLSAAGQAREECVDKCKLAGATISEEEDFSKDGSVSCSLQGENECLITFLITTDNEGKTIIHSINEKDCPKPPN

IC50	SMILES
50 to 250 nM	CC1(CC(=O)N[C@@H](CCO[C@H]2C[C@H](CCc3ccc4c(n3)NCCC4)C2)C(=O)O)CC1 [Compound 125, N-(2-(1-methylcyclopropyl)acetyl)-O-(trans-3-(2-(5,6,7,8-tetrahydro-1,8-naphthyridin-2-yl)ethyl)cyclobutyl)homoserine]
< 50 nM	O=C(CC1CC1)N[C@@H](CCO[C@H]1C[C@H](CCc2ccc3c(n2)NCCC3)C1)C(=O)O [Compound 126, N-(2-cyclopropylacetyl)-O-(trans-3-(2-(5,6,7,8-tetrahydro-1,8-naphthyridin-2-yl)ethyl)cyclobutyl)homoserine]
50 to 250 nM	CC1(OC(=O)N[C@@H](CCO[C@H]2C[C@H](CCc3ccc4c(n3)NCCC4)C2)C(=O)O)CN(S(C)(=O)=O)C1 [Compound 128, N-(((3-methyl-1-(methylsulfonyl)azetidin-3-yl)oxy)carbonyl)-O-(trans-3-(2-(5,6,7,8-tetrahydro-1,8-naphthyridin-2-yl)ethyl)cyclobutyl)homoserine]
50 to 250 nM	CC1(OC(=O)N[C@@H](CCO[C@H]2C[C@H](CCc3ccc4c(n3)NCCC4)C2)C(=O)O)CNC1 [Compound 130, N-(((3-methylazetidin-3-yl)oxy)carbonyl)-O-(trans-3-(2-(5,6,7,8-tetrahydro-1,8-naphthyridin-2-yl)ethyl)cyclobutyl)homoserine]
< 50 nM	O=C(N[C@@H](CCO[C@H]1C[C@H](CCc2ccc3c(n2)NCCC3)C1)C(=O)O)OC1CCCCC1 [Compound 131, N-((cyclohexyloxy)carbonyl)-O-(trans-3-(2-(5,6,7,8-tetrahydro-1,8-naphthyridin-2-yl)ethyl)cyclobutyl)homoserine]
50 to 250 nM	O=C(N[C@@H](CCO[C@H]1C[C@H](CCc2ccc3c(n2)NCCC3)C1)C(=O)O)O[C@H]1CCNC1 [Compound 134, N—((((S)-pyrrolidin-3-yl)oxy)carbonyl)-O-(trans-3-(2-(5,6,7,8-tetrahydro-1,8-naphthyridin-2-yl)ethyl)cyclobutyl)homoserine]
< 50 nM	CS(=O)(=O)N1CC[C@H](OC(=O)N[C@@H](CCO[C@H]2C[C@H](CCc3ccc4c(n3)NCCC4)C2)C(=O)O)C1 [Compound 136, N—((((S)-1-(methylsulfonyl)pyrrolidin-3-yl)oxy)carbonyl)-O-(trans-3-(2-(5,6,7,8-tetrahydro-1,8-naphthyridin-2-yl)ethyl)cyclobutyl)homoserine]
250 to 1000 nM	CC(=O)N1CC[C@H](OC(=O)N[C@@H](CCO[C@H]2C[C@H](CCc3ccc4c(n3)NCCC4)C2)C(=O)O)C1 [Compound 137, N—((((S)-1-acetylpyrrolidin-3-yl)oxy)carbonyl)-O-(trans-3-(2-(5,6,7,8-tetrahydro-1,8-naphthyridin-2-yl)ethyl)cyclobutyl)homoserine]
> 1000 nM	CC(=O)N1CC[C@@H](OC(=O)N[C@@H](CCO[C@H]2C[C@H](CCc3ccc4c(n3)NCCC4)C2)C(=O)O)C1 [Compound 139, N—((((R)-1-acetylpyrrolidin-3-yl)oxy)carbonyl)-O-(trans-3-(2-(5,6,7,8-tetrahydro-1,8-naphthyridin-2-yl)ethyl)cyclobutyl)homoserine]
250 to 1000 nM	C[C@@H](OC(=O)N[C@@H](CCO[C@H]1C[C@H](CCc2ccc3c(n2)NCCC3)C1)C(=O)O)c1ccccc1 [Compound 140, N—(((R)-1-phenylethoxy)carbonyl)-O-(trans-3-(2-(5,6,7,8-tetrahydro-1,8-naphthyridin-2-yl)ethyl)cyclobutyl)homoserine]
< 50 nM	C[C@H](OC(=O)N[C@@H](CCO[C@H]1C[C@H](CCc2ccc3c(n2)NCCC3)C1)C(=O)O)c1ccccc1 [Compound 141, N—(((S)-1-phenylethoxy)carbonyl)-O-(trans-3-(2-(5,6,7,8-tetrahydro-1,8-naphthyridin-2-yl)ethyl)cyclobutyl)homoserine]
250 to 1000 nM	O=C(N[C@@H](CCO[C@H]1C[C@H](CCc2ccc3c(n2)NCCC3)C1)C(=O)O)O[C@@H]1CCCC[C@H]1c1ccccc1 [Compound 144, N-((((1R,2S)-2-phenylcyclohexyl)oxy)carbonyl)-O-(trans-3-(2-(5,6,7,8-tetrahydro-1,8-naphthyridin-2-yl)ethyl)cyclobutyl)homoserine]
50 to 250 nM	O=C(N[C@@H](CCO[C@H]1C[C@H](CCc2ccc3c(n2)NCCC3)C1)C(=O)O)O[C@H]1CCCC[C@@H]1c1ccccc1 [Compound 146, N-((((1S,2R)-2-phenylcyclohexyl)oxy)carbonyl)-O-(trans-3-(2-(5,6,7,8-tetrahydro-1,8-naphthyridin-2-yl)ethyl)cyclobutyl)homoserine]
250 to 1000 nM	O=C(N[C@@H](CCO[C@H]1C[C@H](CCc2ccc3c(n2)NCCC3)C1)C(=O)O)O[C@H]1CC[C@H](c2ccccc2)CC1 [Compound 148, N-(((trans-4-phenylcyclohexyl)oxy)carbonyl)-O-(trans-3-(2-(5,6,7,8-tetrahydro-1,8-naphthyridin-2-yl)ethyl)cyclobutyl)homoserine]
50 to 250 nM	O=C(N[C@@H](CCO[C@H]1C[C@H](CCc2ccc3c(n2)NCCC3)C1)C(=O)O)O[C@H]1CC[C@@H](c2ccccc2)CC1 [Compound 149, N-(((cis-4-phenylcyclohexyl)oxy)carbonyl)-O-(trans-3-(2-(5,6,7,8-tetrahydro-1,8-naphthyridin-2-yl)ethyl)cyclobutyl)homoserine]
250 to 1000 nM	CC(=O)N1CC(OC(=O)N[C@@H](CCO[C@H]2C[C@H](CCc3ccc4c(n3)NCCC4)C2)C(=O)O)C1 [Compound 150, N-(((1-acetylazetidin-3-yl)oxy)carbonyl)-O-(trans-3-(2-(5,6,7,8-tetrahydro-1,8-naphthyridin-2-yl)ethyl)cyclobutyl)homoserine]
< 50 nM	CC(=O)NC[C@H](C)OC(=O)N[C@@H](CCO[C@H]1C[C@H](CCc2ccc3c(n2)NCCC3)C1)C(=O)O [Compound 151, N—((((S)-1-acetamidopropan-2-yl)oxy)carbonyl)-O-(trans-3-(2-(5,6,7,8-tetrahydro-1,8-naphthyridin-2-yl)ethyl)cyclobutyl)homoserine]

The remaining lines, values behind:

SMILES	IC50
CC(C)(C)OC(=O)N1CC(C)(OC(=O)N[C@@H](CCO[C@H]2C[C@H](CCc3ccc4c(n3)NCCC4)C2)C(=O)O)C1 [Compound 127, N-(((1-(tert-butoxycarbonyl)-3-methylazetidin-3-yl)oxy)carbonyl)-O-(trans-3-(2-(5,6,7,8-tetrahydro-1,8-naphthyridin-2-yl)ethyl)cyclobutyl)homoserine]	< 50 nM
CC(=O)N1CC(C)(OC(=O)N[C@@H](CCO[C@H]2C[C@H](CCc3ccc4c(n3)NCCC4)C2)C(=O)O)C1 [Compound 129, N-(((1-acetyl-3-methylazetidin-3-yl)oxy)carbonyl)-O-(trans-3-(2-(5,6,7,8-tetrahydro-1,8-naphthyridin-2-yl)ethyl)cyclobutyl)homoserine]	50 to 250 nM
CC(C)COC(=O)N[C@@H](CCO[C@H]1C[C@H](CCc2ccc3c(n2)NCCC3)C1)C(=O)O [Compound 132, N-(isobutoxycarbonyl)-O-(trans-3-(2-(5,6,7,8-tetrahydro-1,8-naphthyridin-2-yl)ethyl)cyclobutyl)homoserine]	50 to 250 nM
CC(C)(C)OC(=O)N1CC[C@H](OC(=O)N[C@@H](CCO[C@H]2C[C@H](CCc3ccc4c(n3)NCCC4)C2)C(=O)O)C1 [Compound 133, N—((((S)-1-(tert-butoxycarbonyl)pyrrolidin-3-yl)oxy)carbonyl)-O-(trans-3-(2-(5,6,7,8-tetrahydro-1,8-naphthyridin-2-yl)ethyl)cyclobutyl)homoserine]	< 50 nM
CS(=O)(=O)CCCC(=O)N[C@@H](CCO[C@H]1C[C@H](CCc2ccc3c(n2)NCCC3)C1)C(=O)O [Compound 135, N-(4-(methylsulfonyl)butanoyl)-O-(trans-3-(2-(5,6,7,8-tetrahydro-1,8-naphthyridin-2-yl)ethyl)cyclobutyl)homoserine]	50 to 250 nM
CC(C)(C)OC(=O)N1CC[C@@H](OC(=O)N[C@@H](CCO[C@H]2C[C@H](CCc3ccc4c(n3)NCCC4)C2)C(=O)O)C1 [Compound 138, N—((((R)-1-(tert-butoxycarbonyl)pyrrolidin-3-yl)oxy)carbonyl)-O-(trans-3-(2-(5,6,7,8-tetrahydro-1,8-naphthyridin-2-yl)ethyl)cyclobutyl)homoserine]	50 to 250 nM
O=C(NC(CCO[C@H]1C[C@H](CCc2ccc3c(n2)NCCC3)C1)C(=O)O)OC1CCC1c1ccccc1 (stereo partly drawn) [Compound 142, N-((2-phenylcyclobutoxy)carbonyl)-O-(trans-3-(2-(5,6,7,8-tetrahydro-1,8-naphthyridin-2-yl)ethyl)cyclobutyl)homoserine]	50 to 250 nM
O=C(N[C@@H](CCO[C@H]1C[C@H](CCc2ccc3c(n2)NCCC3)C1)C(=O)O)O[C@H]1C[C@@H](c2ccccc2)C1 [Compound 143, N-((cis-3-phenylcyclobutoxy)carbonyl)-O-(trans-3-(2-(5,6,7,8-tetrahydro-1,8-naphthyridin-2-yl)ethyl)cyclobutyl)homoserine]	250 to 1000 nM
CC(C)(C)OC(=O)N1CC(OC(=O)N[C@@H](CCO[C@H]2C[C@H](CCc3ccc4c(n3)NCCC4)C2)C(=O)O)C1 [Compound 147, N-(((1-(tert-butoxycarbonyl)azetidin-3-yl)oxy)carbonyl)-O-(trans-3-(2-(5,6,7,8-tetrahydro-1,8-naphthyridin-2-yl)ethyl)cyclobutyl)homoserine]	< 50 nM
C[C@@H](CNC(=O)OC(C)(C)C)OC(=O)N[C@@H](CCO[C@H]1C[C@H](CCc2ccc3c(n2)NCCC3)C1)C(=O)O [Compound 152, N—((((S)-1-((tert-butoxycarbonyl)amino)propan-2-yl)oxy)carbonyl)-O-(trans-3-(2-(5,6,7,8-tetrahydro-1,8-naphthyridin-2-yl)ethyl)cyclobutyl)homoserine]	< 50 nM
C[C@H](CNC(=O)OC(C)(C)C)OC(=O)N[C@@H](CCO[C@H]1C[C@H](CCc2ccc3c(n2)NCCC3)C1)C(=O)O [Compound 153, N—((((R)-1-((tert-butoxycarbonyl)amino)propan-2-yl)oxy)carbonyl)-O-(trans-3-(2-(5,6,7,8-tetrahydro-1,8-naphthyridin-2-yl)ethyl)cyclobutyl)homoserine]	< 50 nM

From patent US11180494B2, “Substituted amino acids as integrin inhibitors” (Pliant Therapeutics, Inc., priority 2018, dated 2021)
